Here are results for four compounds from article PMC6877910, “Astrocyte-Targeted Transporter-Utilizing Derivatives of Ferulic Acid Can Have Multifunctional Effects Ameliorating Inflammation and Oxidative Stress in the Brain” (Oxidative Medicine and Cellular Longevity, 2019).

Like-named read-outs stand apart in the source and are kept apart here.

One data set in a line: in vitro. In kind it is in vitro ADME. Particulars: mouse; for fraction unbound at 4 h, 10 μM: C57BL/6J. Here is the method:
(§1) The unbound fraction of FA and its derivatives 1-2 was determined at 10 μM in cell homogenate by using a Rapid Equilibrium Dialysis (RED) device (Thermo Fisher Scientific, Inc., Waltham, MA, USA). Briefly, the cell homogenate was prepared from astrocyte cell suspension (10 × 10^6 cells/mL) in HBSS with a SoniPerp 150 Plus disintegrator (MSE Ltd., London, UK) for 2 s × 3. 100 μL of cell homogenate spiked with the studied compound was added to the reaction chamber, and 350 μL of HBSS buffer was added to the buffer chamber of the RED plate. The dialysis plate was incubated at 37°C for 4 h with shaking. 50 μL of samples was taken from the reaction, and buffer chambers and equal size of buffer or blank homogenate were added, respectively, to yield identical matrices. The proteins were precipitated by adding 100 μL of ice-cold ACN (including the selected internal standard; […]

Data set [1] deals with T1, acetylcholinesterase (AChE) (Mus musculus, UniProt P21836).
T1 construct: mouse brain S9 fraction was prepared by homogenizing freshly collected mouse brain; from tissue; host or cells: mouse brain S9 fraction (9 000 x g supernatant)
T1 sequence (P21836 32-614): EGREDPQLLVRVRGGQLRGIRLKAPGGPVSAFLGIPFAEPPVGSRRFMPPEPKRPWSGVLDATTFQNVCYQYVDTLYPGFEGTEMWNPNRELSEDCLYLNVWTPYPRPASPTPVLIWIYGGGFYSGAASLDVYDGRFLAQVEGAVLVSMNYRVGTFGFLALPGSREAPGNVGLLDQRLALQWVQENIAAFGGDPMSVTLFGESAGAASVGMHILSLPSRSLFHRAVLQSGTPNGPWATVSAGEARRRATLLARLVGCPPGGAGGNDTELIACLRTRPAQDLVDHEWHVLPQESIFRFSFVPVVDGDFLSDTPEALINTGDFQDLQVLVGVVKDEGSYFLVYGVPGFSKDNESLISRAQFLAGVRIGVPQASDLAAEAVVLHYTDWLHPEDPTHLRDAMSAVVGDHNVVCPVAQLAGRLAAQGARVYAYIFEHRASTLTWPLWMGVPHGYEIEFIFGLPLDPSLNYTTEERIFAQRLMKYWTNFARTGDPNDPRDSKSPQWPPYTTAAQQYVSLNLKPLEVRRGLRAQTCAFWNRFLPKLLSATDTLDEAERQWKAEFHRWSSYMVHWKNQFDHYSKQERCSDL
Nature of the data set: biochemical. Format: biochemical. To be noted: for Vmax of AChE activity in the presence of derivative (Hanes-Woolf plot): 16-66 μM derivative, Crtl Vmax = 2.21. Here is the method: Briefly, mouse brain S9 fraction was prepared by homogenizing freshly collected mouse brain with 50 mM Tris-buffered saline (TBS) (pH 7.4) (1 : 4, w/v), centrifuging the homogenate at 9 000 × g for 20 min at 4°C and collecting the supernatant. The supernatant was then diluted at 1 : 10 with phosphate-buffered saline (100 mM; pH 7.0) and mixed with Ellman's reagent (5,5′-dithiobis-(2-nitrobenzoic acid); DTNB; 1 mM) and studied compounds in DMSO (DMSO concentration was less than 0.5%) on a 96-well plate as 3 parallel assays.
According to the Hanes-Woolf plots, the ratio of initial substrate concentration to the reaction velocity ([S]/v) was plotted against the substrate concentration (μM).

The next data set has as its system mTOR. Nature of the data set: Total amount of mTOR (ELISA) in cells. In kind it is cell-based, mouse. To be noted: 100 μM; 48 h. Here is the method: Enzyme-Linked Immunosorbent Assay (ELISA) kits were used (mTOR SimpleStep ELISA Kit and NFκB p65 Total SimpeStep ELISA Kit, Abcam, Cambridge, UK) to quantify mammalian (or mechanistic) target of rapamycin (mTOR) and transcription factor NF-κB amounts, respectively. […] The control wells were treated with the solvent only (0.5% DMSO). Cells were solubilized using the provided extraction buffer with the kit, incubated on ice for 20 minutes and centrifuged at 18 000 × g for 20 min at 4°C. The supernatants were stored at -80°C till the day of the analysis. Standards and samples were then analyzed following the manufacturer's protocol (ELISA sandwich method) and by reading the absorbance with the EnVision plate reader (EnVision, PerkinElmer, Inc., Waltham, MA, USA) at 450 nm. The results were analyzed as pmol of formed mTOR or NF-κB per mL.
(ELISA stands for enzyme-linked immunosorbent assay.)

Data set [2] in a line: Intracellular unbound drug concentration ratio (Kp,uu) in astrocytes. In kind it is in vitro ADME. To be noted: C57BL/6J, mouse, read-out: Kp,uu (unbound intracellular : extracellular ratio). Here is the method: as §1, with “shaking.” for “shaking. 50 μL of samples was taken from the reaction, and buffer chambers and equal size of buffer or blank homogenate were added, respectively, to yield identical matrices. The proteins were precipitated by adding 100 μL of ice-cold ACN (including the selected internal standard;”
The drug concentration ratio in astrocytes (Kp) was determined at 0.01-1.0 μM concentrations by comparing the cellular uptake from the cell lysates (0.1 M NaOH) to the concentration detected from the surrounding buffer (HBSS) collected before cell lysing as described by Mateus et al.: (3) Kp=Acell/Vcell/Cmedium, where Acell is the amount of compound in the cell lysate (nmol), Vcell is the astrocyte cell volume (0.05810^−15 L/cell) for 10 × 10^4 cells/well, and Cmedium is the compound concentration in the surrounding buffer. The unbound drug concentration ratio (Kp,uu) was then calculated by multiplying the drug concentration ratio (Kp) by unbound drug fraction (fu,cell) as described by Mateus et al.: (4) Kp,uu=Kp×fu,cell.

The next data set relates to LAT1. Particulars: human breast adenocarcinoma cells (MCF-7); previously determined values; cited from earlier work.
The conditions of data set [3]: mouse brain in vivo; previous study; cited from earlier work.
Where [4] appears, read: mouse brain S9 subcellular fraction, 30 min end point, mean ± SD, n = 3.
The mark [5] stands for this setting: 10 μM in astrocyte cell homogenate, mean ± SD, n = 3, read-out: Unbound fraction fu,cell.

By fraction unbound is commonly meant the share of the substance not bound to proteins or other matrix. By IC50 is commonly meant the point on the concentration scale where inhibition reaches its midpoint.

As for `COc1cc(/C=C/C(=O)O)ccc1O` [FA, trans-4-hydroxy-3-methoxycinnamic acid, reference compound], in “in vitro” (tissue homogenate), the unbound share (fraction unbound) at 4 h, 10 μM came to 1 and the “Unbound fraction fu,cell” value is “Fully unbound”. Also, the “AChE IC50 value” in data set [1] (setting [4]) is “No inhibition”. The “Reduction of total amount of mTOR” value with mTOR is “did not affect”.
Consider `COc1cc(C=CC(=O)NCc2cccc(CC(N)C(=O)O)c2)ccc1O` (centres unmarked) [FA-derivative 1], for which the fraction unbound at 4 h, 10 μM in the data set “in vitro” (setting [5]) was determined as 0.163 ± 0.0272. The Kp uu in data set [2] (lower concentrations (<0.1 μM)) lay in the range of 0.25 to 2.14. In addition, the “Vmax of AChE activity in the presence of derivative (Hanes-Woolf plot)” value in data set [1] stood at 2.12 nmol/min/mg. Also, the results for the half-maximal inhibitory concentration (IC50) (in data set [1] (setting [4]); in the data set with LAT1) were 16.3 ± 1.52 µM and 14.2 µM, respectively. In the data set with mTOR, the “Increase of the amount of mTOR” value was “approximately 28%”. Also, the “FA released in the brain” value in data set [3] is “did not release any FA”.
As for `COc1cc(C=CC(=O)Nc2cccc(CC(N)C(=O)O)c2)ccc1O` (centres unmarked) [FA-derivative 2], the fraction unbound at 4 h, 10 μM in “in vitro” (setting [5]) stood at 0.0806 ± 0.0054. Besides, the Kp uu in data set [2] (throughout the studied concentrations (0.01-1.0 μM)) is 0.83 to 1.74. The figures for the half-maximal inhibitory concentration (IC50) (in data set [1] (setting [4]); with LAT1) were 25.2 ± 1.43 µM and 1.1 µM, respectively. In the data set on mTOR, the “Reduction of total amount of mTOR” value is on record as “approximately 32%”. Besides, the “FA released in the brain” value in data set [3] is on record as “less than 5%”.
Take `COc1cc(C=CC(=O)Oc2cccc(CC(N)C(=O)O)c2)ccc1O` (centres unmarked) [FA-derivative 3]: the “Vmax of AChE activity in the presence of derivative (Hanes-Woolf plot)” value in data set [1] worked out at 2.09 nmol/min/mg. 66.2 ± 1.23 µM corresponded to half-maximal inhibition in data set [1] (setting [4]) (IC50). In addition, the “Reduction of total amount of mTOR” value with mTOR is reported as “approximately 14%”.
